Reference: ChEMBL document CHEMBL3217475, “INPHARMA-based identification of ligand binding site in fragment-based drug design” (Medchemcomm, 2012)
pIC50: −log10 of the molar value.

Assay: Inhibition of glycogen phosphorylase (unknown origin) by INPHARMA method
Design: species or system Homo sapiens

pIC50 | Structure (SMILES)
6.00 | CN1CC[C@H](c2c(O)cc(O)c3c(=O)cc(-c4ccccc4Cl)oc23)[C@H](O)C1 [ALVOCIDIB]
4.00 | Cn1c(=O)c2c(ncn2C)n(C)c1=O [CAFFEINE]
